Assay results published in patent US20130023485A1, “PARENTERAL FORMULATIONS OF PEPTIDES FOR THE TREATMENT OF SYSTEMATIC LUPUS ERYTHEMATOSUS” (Teva Pharmaceutical Industries, Ltd., priority 2003, published 2013).
Read-outs that look alike come from different tables or passages of the source.

Legend:
[1] = test system: IL-2 secretion by PBL of SLE patients; assay: Inhibition of IL-2 secretion by PBL stimulated with human 16/6Id mAb (CTLL line); format: cell-based
Procedure: It was of interest to find out whether the hCDR peptides are capable of inhibiting IL-2 secretion by PBL of SLE patients following stimulation with the human 16/6Id mAb. […] To this end, PBL of SLE patients were incubated with the human 16/6Id mAb in the absence or presence of the peptides hCDR1 or hCDR3. Supernatants of the cultures were collected following 48 hours of incubation. Assays to determine levels of IL-2 in the supernatants were performed using the CTLL IL-2 dependent line. Briefly, cells of the CTLL line (2×10^4/well) were incubated in the presence of the different supernatants for 24 hours, followed by the addition of ^3H-thymidine for an additional 18-hour incubation period. Cells were then harvested and radioactivity counted using a β-counter. Results were calculated based on recombinant human IL-2 used as a standard. The ability of the peptides to inhibit the IL-2 secretion of PBL of 23 responders stimulated by the human 16/6 Id was tested. […] Inhibition of proliferative responses of PBL directly correlated with IL-2 inhibition by the CDR-based peptides.

[2] = test system: PBL of SLE patients stimulated with phytohemagglutinin (PHA); assay: Proliferation of PBL stimulated with mitogen PHA; format: cell-based, human; settings: PHA 2 μg/ml; PBL of one SLE patient, FIG. 9
Procedure: To this end the peptides hCDR1 or hCDR3 were added to cultures of PBL of SLE patients that were stimulated with the mitogen phytohemagglutinin (PHA, 2 μg/ml).

[3] = test system: PBL of SLE patients stimulated with human 16/6Id mAb; format: cell-based; settings: for inhibition of proliferative responses to human 16/6Id mAb: PBL of one SLE patient; for Percent Inhibition of proliferation: highest positive inhibition, peptide 50 or 100 μg/well
Procedure: Cells were then harvested and radioactivity was counted using a β-counter. Results were expressed as mean counts per minute (cpm) of triplicate cultures. Stimulation indices (the ratio of mean cpm at the optimal concentration of 16/6Id to mean cpm without 16/6Id) were then calculated. A stimulation index (SI)≧2 was considered positive. […] Inhibition of above 50% of the proliferative capacity was considered positive. The Table represents the highest positive inhibition capacity for each peptide. […] Both peptides inhibited the proliferation of PBL of 18/19(95%) of responders tested. It can also be seen in the Table that the magnitudes of inhibitions were similar for both peptides. Thus, it can be concluded that peptides based on CDR1 and CDR3 of the human 16/6Id mAb are efficient inhibitors of the proliferation of PBL of SLE patients to the human 16/6Id mAb.

[4] = test system: TGF-β secretion by PBL of SLE patients; assay: Up-regulation of TGF-β secretion by PBL stimulated with human 16/6Id mAb (ELISA); format: cell-based
Procedure: For this purpose, supernatants were removed from cultures of PBL of various SLE patients following 48 hours incubation with the human 16/6Id mAb in the absence or presence of the peptides hCDR1 or hCDR3. TGF-β was determined by ELISA according to the manufacturer's instructions. Briefly, Maxisorb plates (Nunc) were coated with recombinant human TGFβsRII/Fc chimera (R & D Systems) diluted in PBS (100 ng/ml). After blocking, cell supernatants were added. After 18 hours incubation the detecting biotinylated anti-human TGF-β antibody (R & D Systems) was added. The substrate solution used was the TMB Colour Reagent (Helix Diagnostics) and enzyme activity was evaluated by the MRX ELISA reader using the 570 nm and 630 nm filters.

[5] = test system: PBL of SLE patients; assay: Production of IL-2 by PBL in presence of mAb or peptides (CTLD cells); format: cell-based, human
Procedure: (§1) PBL were isolated from blood of SLE patients or healthy controls using ficol gradient, and were incubated as in Example 11. A sample of 50 μl was removed 24 hr after the assay was started, and incubated in the presence of IL-2 sensitive cells (CTLD) for 24 hr, after which ^3H-thymidine was added for 16 hr, and the plates were harvested and counted on a beta counter.

[6] = test system: PBL of healthy controls; assay: as above; format: cell-based, human
Procedure: as §1

[7] = test system: PBL from SLE patients; assay: Proliferation of PBL in presence of mAb or peptides (3H-thymidine); format: cell-based, human
Procedure: (§2) Peripheral blood lymphocytes (PBL) were isolated from the blood of SLE patients or healthy controls using ficol gradient. Thereafter, the PBL were incubated in the presence of different concentrations of the peptides Ia, IIa or IIIa, or the human 16/6 Id mAb for 24 hr, when a sample was taken for IL-2 measurement. The assay was continued for a total of 7 days, and ^3H-thymidine was added for the last 16 hr. Proliferation was detected by reading the amount of radioactivity incorporated into the DNA of the cells.
(§3) As is seen in Table 14, a lower proportion of the PBL taken from SLE patients reacted to the peptides or to the 16/6 Id mAb, when compared to the healthy controls. The results are expressed in percentage of responder (34% in the first line) and the actual number of patients (11 out of 32: 11/32).

[8] = test system: PBL from healthy controls; assay: as above; format: cell-based, human
Procedure: as §2, §3

[9] = test system: antibodies in sera of SLE patients and healthy controls; assay: ELISA of sera for antibodies binding plate-coated peptides or mAb; design: species or system human; settings: plates coated with 10 μg/ml; FIG. 7
Procedure: Human SLE patients (32 patients) were bled and their sera were tested by ELISA for their ability to bind the peptides Ia, IIa and 111a, a control peptide p195-212 (a myasthogenic peptide described in PCT publication No. WO 94/00148) or mAb 5G12.
Detection of the antibodies was conducted on plates that were coated with 10 μg/ml of peptides Ia, IIa, IIIa, p195-212 or mAb 5G12, in PBS for 2 hr, washed and blocked with 1% ovalbumin in PBS for an additional 2 hr. ELISA was continued as described after blockage in Example 2 of PCT International Publication No. 96/30057, using goat anti-human IgG polyclonal antibody conjugated to peroxidase.

## YYCARGLLRGGWNDVDYYGMDV [hCDR3, peptide based on CDR3 of the human 16/6Id mAb]
[1]; 23 responders
  patients whose PBL IL-2 secretion was inhibited / tested: 19/23
[1]; IL-2 secretion with 16/6 Id alone = 100%
  Maximum inhibition %: 78 ± 34%
[1]; PBL of 23 responders
  Inhibitory Activity* % (patients with inhibition of 50% or more): 83 (19/23) %
[1]; PBL of one SLE patient, FIG. 12
  inhibition of IL-2 secretion: 100%
[2]
  inhibition of proliferative responses to mitogen PHA: could not inhibit
[3]; FIG. 10
  inhibition of proliferative responses to human 16/6Id mAb: inhibited efficiently
[3]; FIG. 11
  inhibition of proliferative responses to human 16/6Id mAb: did inhibit efficiently
[3]; SLE patient Number 1
  Percent Inhibition of proliferation: <50%
[3]; SLE patient Number 2
  Percent Inhibition of proliferation: 75%
[3]; SLE patient Number 3
  Percent Inhibition of proliferation: <50%
[3]; SLE patient Number 4
  Percent Inhibition of proliferation: <50%
[3]; SLE patient Number 5
  Percent Inhibition of proliferation: 87.5%
[3]; SLE patient Number 6
  Percent Inhibition of proliferation: 80%
[3]; SLE patient Number 7
  Percent Inhibition of proliferation: 70.4%
[3]; SLE patient Number 8
  Percent Inhibition of proliferation: 56%
[3]; SLE patient Number 9
  Percent Inhibition of proliferation: 65%
[3]; SLE patient Number 10
  Percent Inhibition of proliferation: 71.8%
[3]; SLE patient Number 11
  Percent Inhibition of proliferation: 72%
[3]; SLE patient Number 12
  Percent Inhibition of proliferation: 86%
[3]; SLE patient Number 13
  Percent Inhibition of proliferation: 64%
[3]; SLE patient Number 14
  Percent Inhibition of proliferation: 74%
[3]; SLE patient Number 15
  Percent Inhibition of proliferation: 69%
[3]; SLE patient Number 16
  Percent Inhibition of proliferation: 68%
[3]; SLE patient Number 17
  Percent Inhibition of proliferation: 77.8%
[3]; SLE patient Number 18
  Percent Inhibition of proliferation: <50%
[3]; SLE patient Number 19
  Percent Inhibition of proliferation: 60.8%
[3]; of the 19 responders tested
  responders whose PBL proliferation was inhibited (above 50%): 78.9%
[3]; over patients with positive inhibition (above 50%)
  Percent Inhibition of proliferation, Mean ± SD: 71.82 ± 8.44%
[4]; PBL of SLE patients, 48 hours
  Up-Regulation of TGF-β % (patients): 100 (19/19) %
[4]; PBL of one representative SLE patient, FIG. 13
  secretion of TGF-β: significant up-regulation
[4]; percent secretion above that in the presence of 16/6 Id alone (= 100%)
  Maximum Up-regulation %: 338 ± 242%

## TGYYMQWVKQSPEKSLEWIG [pep Ia]
[5]
  number of responders / tested (IL-2 production): 5/32
  percentage of responders (IL-2 production): 16%
[6]
  number of responders / tested (IL-2 production): 14/25
  percentage of responders (IL-2 production): 56%
[7]
  number of responders / tested (proliferation): 7/32
  percentage of responders (proliferation): 21%
[8]
  number of responders / tested (proliferation): 11/25
  percentage of responders (proliferation): 44%
[9]
  levels of serum antibodies binding the coated antigen, SLE patients versus healthy controls: significantly higher levels

## YYCARFLWEPYAMDYWGQGS (YYCARFLWEPYAMDYWGQGS) [pep IIIa, based on CDR3 of the VH chain of mAb 5G12]
[5]
  number of responders / tested (IL-2 production): 5/32
  percentage of responders (IL-2 production): 16%
[6]
  number of responders / tested (IL-2 production): 16/25
  percentage of responders (IL-2 production): 64%
[7]
  number of responders / tested (proliferation): 10/32
  percentage of responders (proliferation): 31%
[8]
  number of responders / tested (proliferation): 15/25
  percentage of responders (proliferation): 60%
[9]
  levels of serum antibodies binding the coated antigen, SLE patients versus healthy controls: significantly higher levels
[3]; FIG. 10
  inhibition of proliferative responses to human 16/6Id mAb: did not inhibit

## EINPSTGGTTYNQKFKAKAT (EINPSTGGTTYNQKFKAKAT) [pep IIa, based on CDR2 of the VH chain of mAb 5G12]
[5]
  number of responders / tested (IL-2 production): 3/32
[6]
  number of responders / tested (IL-2 production): 8/25
  percentage of responders (IL-2 production): 32%
[7]
  number of responders / tested (proliferation): 3/32
  percentage of responders (proliferation): 9%
[8]
  number of responders / tested (proliferation): 7/25
  percentage of responders (proliferation): 28%
[9]
  levels of serum antibodies binding the coated antigen, SLE patients versus healthy controls: significantly higher levels
